From patent US20100028892A1, “YEAST BASED EXPRESSION OF PROTEASES AND METHODS OF USE” (Burnham Institute for Medical Research, priority 2008, published 2010)

Tests used:
Type in all cases: cell-based
Caspase6 = biological target: T1, Caspase6 (Homo sapiens, UniProt P55212); assay: yeast 384 well β-galactosidase reporter assay, Caspase6; conditions: Caspase6 in yeast, 384 well β-galactosidase activity assay
T1 construct: each full-length Caspase construct was expressed (for Caspases-1, 2, 3, 4, 5, 6, 7, and 9) at high levels; HA (N); expressed in transfected cells; host or cells: Saccharomyces cerevisiae (EGY48)
T1 sequence (P55212 1-293): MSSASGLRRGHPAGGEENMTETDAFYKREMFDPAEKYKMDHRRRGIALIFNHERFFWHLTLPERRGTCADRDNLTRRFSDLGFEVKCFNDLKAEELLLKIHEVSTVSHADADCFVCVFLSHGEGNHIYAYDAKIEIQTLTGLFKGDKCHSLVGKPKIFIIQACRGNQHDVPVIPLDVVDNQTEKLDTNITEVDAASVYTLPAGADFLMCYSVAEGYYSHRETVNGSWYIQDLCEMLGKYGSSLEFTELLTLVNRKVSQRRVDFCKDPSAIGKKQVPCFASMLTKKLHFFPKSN
Text: (§1) When converting the yeast-based protease reporter system to HTS assay, conditions from agar plates to liquid medium in microtiter wells must be revised. This revision comprises, utilizing the measured β-galactosidase produced by yeast carrying the Caspase-cleavable reporter proteins, and assaying the colorimetric product (OD620nm) derived from X-gal substrate in 384 well plates, as a measure of the lacZ reporter gene activity. We compared β-galactosidase activity produced in the presence or absence of the broad-spectrum caspase inhibitory compound, zVAD-fmk ([…]-Valinyl-Alaninyl-Aspartyl-fluoromethylketone). […] Note that it was determined that it is not advisible to employ glucose in yeast media because it represses the GAL1 promoter used in some plasmids. […]
(§2) Yeast expressing various Caspases alone (at high levels) or in combination with upstream activators (at low levels) and cleavable substrates containing appropriate tetrapeptides reorganized by these proteases were used in 384 well β-galactosidase activity assays to assess inhibition by zVAD-fmk. The compound was titrated into assays at various concentrations and percentage inhibition was determined.
(§3) Assays were performed in a total volume of […] in triplicate. […] Absorbance at 620 nm was measured 2-3 days after culture at 30° C.

Caspase7 = biological target: T2, Caspase7 (Homo sapiens, UniProt P55210); assay: yeast 384 well β-galactosidase reporter assay, Caspase7; conditions: Caspase7 in yeast, 384 well β-galactosidase activity assay
T2 construct: each full-length Caspase construct was expressed (for Caspases-1, 2, 3, 4, 5, 6, 7, and 9) at high levels; expressed in transfected cells; host or cells: Saccharomyces cerevisiae (EGY48)
T2 sequence (P55210 1-303): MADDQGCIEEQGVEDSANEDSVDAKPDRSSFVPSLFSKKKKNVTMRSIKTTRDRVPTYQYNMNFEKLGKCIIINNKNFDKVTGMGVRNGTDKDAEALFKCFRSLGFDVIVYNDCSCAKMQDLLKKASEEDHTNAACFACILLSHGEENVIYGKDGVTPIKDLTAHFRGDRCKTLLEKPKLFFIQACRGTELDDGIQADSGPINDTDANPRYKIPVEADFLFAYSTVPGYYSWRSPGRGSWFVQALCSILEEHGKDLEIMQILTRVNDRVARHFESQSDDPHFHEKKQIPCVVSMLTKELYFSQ
Text: as §1, §2, §3

[1] = biological target: T3, Caspase9 activated with Apaf* (Homo sapiens, UniProt P55211); assay: yeast 384 well β-galactosidase reporter assay, Caspase9 activated with Apaf*; conditions: Caspase9 activated with Apaf* in yeast, 384 well β-galactosidase activity assay
T3 construct: Caspase (all full-length zymogen proforms) expression plasmids; HA (N); expressed in transfected cells; host or cells: Saccharomyces cerevisiae EGY48
T3 sequence (P55211 1-416): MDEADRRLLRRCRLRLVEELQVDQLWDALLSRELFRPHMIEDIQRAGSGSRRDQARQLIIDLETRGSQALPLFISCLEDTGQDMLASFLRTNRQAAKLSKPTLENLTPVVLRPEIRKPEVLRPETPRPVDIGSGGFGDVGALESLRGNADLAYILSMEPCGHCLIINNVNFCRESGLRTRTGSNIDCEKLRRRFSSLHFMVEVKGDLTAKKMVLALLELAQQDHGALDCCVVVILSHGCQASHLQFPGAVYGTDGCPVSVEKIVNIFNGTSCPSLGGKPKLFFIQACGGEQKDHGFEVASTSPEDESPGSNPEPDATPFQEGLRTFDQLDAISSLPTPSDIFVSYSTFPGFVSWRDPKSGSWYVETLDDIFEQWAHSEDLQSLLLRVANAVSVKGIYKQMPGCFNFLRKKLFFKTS
Text: as §1, §2, §3

[2] = biological target: T4, Caspase10 activated with FADD (Homo sapiens, UniProt Q92851); assay: yeast 384 well β-galactosidase reporter assay, Caspase10 activated with FADD; conditions: Caspase10 activated with FADD in yeast, 384 well β-galactosidase activity assay
T4 construct: a small amount of each full-length Caspase construct was expressed with a large amount of adaptor protein FADD; FLAG (C); expressed in transfected cells; host or cells: Saccharomyces cerevisiae EGY48
T4 sequence (Q92851 1-479 isoform Q92851-2): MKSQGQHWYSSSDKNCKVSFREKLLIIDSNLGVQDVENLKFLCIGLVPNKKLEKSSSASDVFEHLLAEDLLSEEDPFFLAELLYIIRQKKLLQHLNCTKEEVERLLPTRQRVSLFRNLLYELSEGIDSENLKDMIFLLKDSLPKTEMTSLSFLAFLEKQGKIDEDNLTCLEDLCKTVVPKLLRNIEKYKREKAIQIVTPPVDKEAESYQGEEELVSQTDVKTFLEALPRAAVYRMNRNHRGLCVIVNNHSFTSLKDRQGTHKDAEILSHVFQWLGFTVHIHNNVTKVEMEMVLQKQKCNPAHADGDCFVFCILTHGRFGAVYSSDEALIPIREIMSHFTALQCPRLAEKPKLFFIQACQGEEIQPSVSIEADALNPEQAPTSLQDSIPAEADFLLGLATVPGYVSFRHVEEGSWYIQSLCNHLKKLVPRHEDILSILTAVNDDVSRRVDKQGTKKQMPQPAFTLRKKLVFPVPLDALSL
Text: as §1, §2, §3

benzoyl-Valinyl-Alaninyl-Aspartyl-fluoromethylketone [zVAD-fmk]
IC50 (Caspase6): 6.78 µM
IC50 (Caspase7): 4.11 µM
IC50 [1]: 10.7 µM
IC50 [2]: 9.52 µM
